Results on 22 compounds are retold here after PubChem BioAssay (NCI).

Among the test systems are COLO 205 colon; SNB-19 CNS; SNB-75 CNS; U251 CNS; MALME-3M melanoma; 786-0 renal; OVCAR-8 ovarian; EKVX NSCLC; SK-MEL-28 melanoma.
Common to all, as to assay: growth of human tumour cells (NCI), 48 h

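Compound exposure: 48 hours, 5 concentrations, 96-well plates. GI50: concentration for 50% inhibition of growth. The concentration for full growth arrest is given as TGI.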 A value given as a limit tells only on which side of the number the result lay.

Turning to `Cc1nc(-n2nc(-c3ccccc3)cc2-c2ccccc2)sc1C(=O)/C=C/c1cccc([N+](=O)[O-])c1`, the TGI was 30.8 µM in the assay on COLO 205 colon; 23.5 µM with SNB-19 CNS; 51.7 µM in the assay on SNB-75 CNS; 32.5 µM in the assay with U251 CNS; 41.1 µM in the assay with MALME-3M melanoma; 25.3 µM with 786-0 renal. In addition, the results for the TGI in the assay with OVCAR-8 ovarian, in the assay with EKVX NSCLC and in the assay with SK-MEL-28 melanoma were greater than 100 µM, greater than 100 µM and 34.1 µM, respectively.
For the compound `CCOC(=O)C(=O)Nc1nc2ccc(C)cc2s1`, the TGI in the assay on COLO 205 colon, in the assay on SNB-19 CNS, with SNB-75 CNS, in the assay on U251 CNS, in the assay on MALME-3M melanoma and in the assay on 786-0 renal was greater than 100 µM in each case. Also, the TGI in the assay on OVCAR-8 ovarian, in the assay on EKVX NSCLC and in the assay with SK-MEL-28 melanoma was greater than 100 µM each time.
`Cc1ccc([N+]2=NC(c3ccccc3)=NN(c3ccccc3)C2)cc1`: the TGI with COLO 205 colon, with SNB-19 CNS, with U251 CNS, with MALME-3M melanoma, with 786-0 renal and in the assay on OVCAR-8 ovarian was greater than 100 µM in each case. Further, the TGI in the assay with EKVX NSCLC and in the assay on SK-MEL-28 melanoma was greater than 100 µM each time.
Regarding `CN1C/C(=C\c2ccc(C(=O)O)cc2)C(=O)/C(=C/c2ccc(C(=O)O)cc2)C1`, the TGI in the assay with COLO 205 colon, with SNB-75 CNS, with U251 CNS, with MALME-3M melanoma, in the assay on 786-0 renal and in the assay with OVCAR-8 ovarian was greater than 100 µM throughout. For the same compound, the TGI in the assay on EKVX NSCLC and with SK-MEL-28 melanoma was greater than 100 µM in each case.
Take `O=C(CCc1cc(-c2ccc(F)cc2)n[nH]1)N(Cc1ccccc1)Cc1ccccc1`: the TGI with COLO 205 colon, in the assay on SNB-19 CNS, in the assay on SNB-75 CNS, in the assay with U251 CNS, in the assay on MALME-3M melanoma and in the assay on 786-0 renal was greater than 100 µM throughout. Besides, the TGI in the assay with OVCAR-8 ovarian, in the assay on EKVX NSCLC and with SK-MEL-28 melanoma was greater than 100 µM each time.
Take `C/C(=N\Nc1n[nH]c(=S)n1N)c1c(O)cc(C)oc1=O`: the TGI with SNB-19 CNS, in the assay on SNB-75 CNS, in the assay on U251 CNS, with MALME-3M melanoma, in the assay with 786-0 renal and with OVCAR-8 ovarian was greater than 100 µM each time. Besides, the TGI in the assay with EKVX NSCLC and in the assay with SK-MEL-28 melanoma was greater than 100 µM in each case.
As for `O/N=C1\C(=C\c2ccc3c(c2)OCCO3)CCCC1C(NO)c1ccc2c(c1)OCCO2` (stereo not given), the TGI in the assay on COLO 205 colon was 98.4 µM; in the assay with SNB-19 CNS it was greater than 100 µM; in the assay on SNB-75 CNS it was 72.6 µM; with U251 CNS it was 42.2 µM; in the assay with MALME-3M melanoma, 63.7 µM; in the assay on 786-0 renal, greater than 100 µM. Also, the TGI with OVCAR-8 ovarian is greater than 100 µM; with EKVX NSCLC, 69.6 µM; in the assay with SK-MEL-28 melanoma, 32.5 µM.
For `COC(=O)C#CC(N)=O`, the TGI with COLO 205 colon was greater than 100 µM; in the assay on SNB-19 CNS, greater than 100 µM; with SNB-75 CNS, greater than 100 µM; with U251 CNS, greater than 100 µM; with MALME-3M melanoma, 19.1 µM; in the assay on 786-0 renal, greater than 100 µM. For the same compound, the TGI in the assay with OVCAR-8 ovarian was greater than 94.9 µM; in the assay on EKVX NSCLC, greater than 100 µM; in the assay on SK-MEL-28 melanoma, 47.5 µM.
Consider `O=C(N/C(=C\c1ccc(F)cc1)c1nc2ccccc2[nH]1)c1ccccc1`, for which the TGI with COLO 205 colon, with SNB-19 CNS, with SNB-75 CNS, in the assay on U251 CNS, in the assay with MALME-3M melanoma and with 786-0 renal was greater than 100 µM in each case. Moreover, the TGI with OVCAR-8 ovarian, in the assay with EKVX NSCLC and in the assay with SK-MEL-28 melanoma was greater than 100 µM throughout.
In the case of `COC(=O)C(=O)C(C#N)c1c(Cl)cccc1Cl` (stereo not given), the TGI with COLO 205 colon, in the assay on SNB-19 CNS, in the assay on SNB-75 CNS, in the assay with MALME-3M melanoma, in the assay with 786-0 renal and in the assay on OVCAR-8 ovarian was greater than 100 µM throughout. Further, the TGI in the assay on EKVX NSCLC and in the assay with SK-MEL-28 melanoma was greater than 100 µM throughout.
As for `CC1(C2CCC3(C)C(C2)C3Sc2ccccc2)OCCO1` (stereo not given), the TGI in the assay with COLO 205 colon was 35.8 µM; with SNB-19 CNS, 82.6 µM; with SNB-75 CNS, greater than 100 µM; in the assay with U251 CNS, 42.8 µM; in the assay with MALME-3M melanoma, 41.8 µM; in the assay with 786-0 renal it was 33.3 µM. Moreover, the results for the TGI in the assay with OVCAR-8 ovarian, in the assay on EKVX NSCLC and in the assay with SK-MEL-28 melanoma were greater than 100 µM, 66.2 µM and 63.6 µM, respectively.
As to `COc1cc([C@@H]2c3cc4c(cc3[C@@H](NCc3cccc(F)c3)C3COC(=O)[C@@H]32)OCO4)cc(OC)c1O` (stereo not given in full), the TGI with COLO 205 colon is greater than 65 µM; with SNB-19 CNS, greater than 65 µM; in the assay with SNB-75 CNS, 13.5 µM; with U251 CNS it was 7.11 µM; in the assay on MALME-3M melanoma, 21.5 µM; in the assay with 786-0 renal, 10.2 µM. The TGI with OVCAR-8 ovarian came to 25.3 µM; in the assay on EKVX NSCLC it was 38 µM; with SK-MEL-28 melanoma, 45.9 µM.
As to `c1ccc(-c2cc3n4c(-c5ccccc5)nn(-c5ccccc5)c4cnc-3n2)cc1`, the GI50 in the assay with SNB-19 CNS is 12.5 µM; in the assay with SNB-75 CNS, 5.39 µM; in the assay on U251 CNS, 7.85 µM; with MALME-3M melanoma, 4.58 µM; with 786-0 renal, 19.8 µM; with OVCAR-8 ovarian it was greater than 50 µM. Further, in the assay with EKVX NSCLC, the GI50 is 17 µM. In addition, the TGI in the assay on SNB-19 CNS is greater than 50 µM; in the assay on SNB-75 CNS, 17.8 µM; in the assay with U251 CNS, greater than 50 µM; in the assay with MALME-3M melanoma, greater than 50 µM; in the assay on 786-0 renal it was greater than 50 µM; in the assay on OVCAR-8 ovarian it was greater than 50 µM. Moreover, in the assay on EKVX NSCLC, the TGI is greater than 50 µM.
Consider `NC(=O)c1nc(-c2ccc(Cl)c(Cl)c2)nc2ccccc12`, for which the TGI with COLO 205 colon is greater than 100 µM; with SNB-19 CNS, greater than 100 µM; in the assay on SNB-75 CNS, 11.7 µM; in the assay with U251 CNS it was greater than 100 µM; in the assay with MALME-3M melanoma, 30 µM; in the assay on 786-0 renal, greater than 100 µM. In addition, the figures for the TGI in the assay on OVCAR-8 ovarian, in the assay on EKVX NSCLC and with SK-MEL-28 melanoma were greater than 21.8 µM, greater than 100 µM and greater than 40.9 µM, respectively.
As for `C#C[C@@H](CCCC)OC(=O)N[C@H](C)c1ccccc1`, the TGI was greater than 100 µM with SNB-19 CNS; 97.5 µM in the assay with SNB-75 CNS; greater than 100 µM with U251 CNS; greater than 100 µM with 786-0 renal; greater than 100 µM in the assay on OVCAR-8 ovarian; greater than 100 µM in the assay on EKVX NSCLC. Moreover, the TGI in the assay with SK-MEL-28 melanoma is greater than 100 µM.
`CN(C)C(=S)/N=c1\ss/c(=N\S(=O)(=O)c2ccccc2)n1C`: the TGI in the assay on SNB-19 CNS, in the assay with SNB-75 CNS, in the assay with U251 CNS, in the assay with MALME-3M melanoma, in the assay on 786-0 renal and in the assay with OVCAR-8 ovarian was greater than 100 µM throughout. The TGI in the assay on EKVX NSCLC and in the assay on SK-MEL-28 melanoma was greater than 100 µM throughout.
Regarding `CCCCCC/C(CC(=O)CCC(=O)NCCc1ccccc1)=N\Nc1ccc([N+](=O)[O-])cc1[N+](=O)[O-]`, the TGI in the assay with COLO 205 colon, with SNB-19 CNS, with U251 CNS, in the assay on MALME-3M melanoma, with 786-0 renal and with OVCAR-8 ovarian was greater than 100 µM in each case. In addition, the TGI with EKVX NSCLC and in the assay on SK-MEL-28 melanoma was greater than 100 µM throughout.
For `CC/C(C)=C1\CCC(CN(C)C)C1=O` (stereo not given), the TGI was greater than 100 µM in the assay with SNB-19 CNS; 30.1 µM in the assay with SNB-75 CNS; 39.1 µM with MALME-3M melanoma; 29.3 µM in the assay with 786-0 renal; 76.1 µM with OVCAR-8 ovarian; 44 µM with EKVX NSCLC. The compound further yielded a TGI in the assay on SK-MEL-28 melanoma of 38.6 µM.
Take `Cc1nc(-n2nc(-c3ccccc3)cc2-c2ccccc2)sc1C(=O)CC(=O)C(=O)Nc1ccc(O)cc1`: the TGI in the assay on COLO 205 colon, in the assay on SNB-19 CNS, with SNB-75 CNS, with U251 CNS, with MALME-3M melanoma and with 786-0 renal was greater than 100 µM in each case. Moreover, the TGI in the assay on OVCAR-8 ovarian and in the assay with EKVX NSCLC was greater than 100 µM in each case.
With `C=Cc1cc(OC)c2c(c1)c(=O)oc1c2cc(OC)c2c(O)ccc(C3OC(C(C)O)C(O)C3O)c21` (stereo not given), the GI50 was 0.0113 µM with COLO 205 colon; 0.028 µM in the assay with SNB-19 CNS; 0.0157 µM in the assay with SNB-75 CNS; 0.0107 µM in the assay with MALME-3M melanoma; 0.00336 µM in the assay with 786-0 renal; 0.0114 µM in the assay with OVCAR-8 ovarian. The GI50 was 0.00403 µM in the assay on EKVX NSCLC and 0.0225 µM with SK-MEL-28 melanoma. The TGI is 0.102 µM with COLO 205 colon; 0.246 µM with SNB-19 CNS; 0.0515 µM with SNB-75 CNS; 0.0366 µM in the assay on MALME-3M melanoma; 0.0192 µM in the assay on 786-0 renal; 0.212 µM in the assay on OVCAR-8 ovarian. Moreover, the TGI in the assay on EKVX NSCLC worked out at 0.0336 µM; in the assay with SK-MEL-28 melanoma it was 0.0525 µM.
`N#CNC1=NCCC(=O)N1CCc1c[nH]c2ccccc12`: the TGI in the assay on COLO 205 colon, in the assay on SNB-19 CNS, with SNB-75 CNS, with 786-0 renal, in the assay on OVCAR-8 ovarian and with EKVX NSCLC was greater than 100 µM throughout. In the assay on SK-MEL-28 melanoma, this compound registered a TGI greater than 100 µM.
For `N#CC(C#N)C(c1ccccc1)c1ccccc1`, the TGI with COLO 205 colon, in the assay with SNB-19 CNS, in the assay with U251 CNS, in the assay on MALME-3M melanoma, in the assay with 786-0 renal and in the assay with OVCAR-8 ovarian was greater than 100 µM each time. Further, the TGI in the assay on SK-MEL-28 melanoma was greater than 100 µM.
